{
  "source": "patent US20110263539A1",
  "about": "“SHIP 1 MODULATOR COMPOUNDS” (THE UNIVERSITY OF BRITISH COLUMBIA, priority 2006, published 2011)",
  "key": {"Mast cells": {"test_system": "Mast cells", "experiment": "Stimulation of mast cells by FcεRI crosslinking (Assay 4)", "type": "cell-based", "details": "anti-DNP IgE, DNP-HSA", "procedure": "Assay 4) Stimulation of mast cells by FcåRI crosslinking. Mast cells were pre-loaded overnight in BMMC medium lacking IL-3 with 0.1 μg/ml anti-DNP IgE (SPE-7, Sigma, Oakville, Ont). For calcium flux measurements, cells were incubated with 2 μM fura 2-acetoxymethyl ester (Molecular Probes, Eugene, Oreg.) in Tyrode's buffer at 23° C. for 45 min. Cells were then washed and incubated in the presence of the test compound 30 min prior to stimulation with the indicated concentration of DNP-human serum albumin (DNP-HSA). Calcium influx was monitored by spectrofluorometry as described previously. For analysis of intracellular signaling, cells were pre-loaded with anti-DNP IgE as above, pre-treated with the test compound for 30 min at 37° C. and stimulated with 20 ng/ml DNP-HSA for 5 min. Total cell lysates were then prepared and analyzed for phospho-PKB, phospho-p38^MAPK, phospho-MAPK, Grb-2 (Cell Signalling, Mississauga, Ont) and SHIP^6 by immunoblot analysis."}, "SHIP C2 domain [1]": {"test_system": "SHIP C2 domain", "experiment": "Protein lipid overlay assay", "type": "binding", "details": "4 μM Compound 100", "procedure": "Protein lipid overlay (PLO) assays were performed essentially as described with minor modifications. Lyophilized phosphatidylinositol-3,4-bisphosphate diC16 (PIP2, Echelon Biosciences, Salt Lake City, Utah) was reconstituted in a 2:1.8 solution of methanol and water. PVDF membranes (Millipore, Missisauga, Ont) were initially wetted in methanol for 1 minute, and washed 3×5 min with water, and gently agitated in TBST buffer (20 mM Tris pH 7.5, 0.15 M NaCl (TBS) with 0.05% Tween 20) at 23° C. overnight. Treated membranes were air-dried and dilutions of reconstituted lipids were spotted in 1 μl aliquots to give the indicated amount of PIP2 per membrane spot. Membranes were dried completely and blocked with blocking buffer (3% BSA in TBS with 0.05% NaN3) for 1 h at 23° C. Purified, recombinant C2 domain was diluted into blocking buffer (5 μM final) and treated with 4 μM Compound 100 or EtOH control for 30 min at 23° C. prior to overnight incubation with the PIP2 spotted membranes. […] After washing, bound proteins were detected and quantified on a Li-Cor Odyssey scanner (Lincoln, Nebr.).\nIsolated recombinant, His6-tagged C2 domain was expressed and its PI-3,4-P2 binding ability was determined using protein lipid overlay assays. Purified C2 domain was incubated with membrane strips spotted with PI-3,4-P2 and bound protein detected using an anti-His6 antibody. […]"}, "J774.1a macrophage cells": {"test_system": "J774.1a macrophage cells", "experiment": "Macrophage TNF-α NO assay (Assay 3); note: key: a ‘+’ indicates a positive result for desired activity; a ‘−’ indicates a negative result for desired activity", "type": "cell-based", "details": "10 μg/ml test compound, LPS, 24 hr, Griess reagent", "procedure": "Assay 3) Macrophage TNF-α NO assay. J774.1a macrophage cells were treated with 10 μg/ml of test compound dissolved in solvent for 40 minutes prior to the addition of LPS. Culture supernatants were collected after 24 hr. for determination of NO concentration using the Griess reagent."}, "ΔC2 SHIP": {"test_system": "ΔC2 SHIP", "experiment": "SHIP enzyme assay with C2 domain deleted SHIP", "type": "biochemical", "details": "PI-3,4-P2 20 μM or Compound 100 3 μM, 30 μM IP4", "description": "A His6 tagged SHIP ΔC2 domain deletion mutant (deleting residues 725 to 863) in the mammalian expression vector pME18S was generated by a standard PCR-based methodology. An N-terminal His6 C2 domain construct was also generated by PCR inserted into the pET28C bacterial expression vector using EcoRI and NdeI restriction sites.\nThe allosteric regulation of enzymes has remained under-appreciated primarily because allosteric effectors are not easy to find. The molecular mechanism by which Compound 100 activated SHIP was investigated, first by performing classical enzyme kinetic analysis of its phosphatase activity. Activity measurements were performed with substrate concentrations from 10-100 μM.\nThe SHIP protein contains a C2 domain located at the carboxyterminal end of its phosphatase domain. […] SHIP lacking its the C2 domain (ΔC2 SHIP) was prepared."}, "wild-type SHIP": {"test_system": "wild-type SHIP", "experiment": "Scintillation proximity assay, wild-type and ΔC2 SHIP", "type": "binding", "details": "[3H]-Compound 100, SPA beads", "procedure": "(§1) Compound 100 was radiolabelled with tritium by GE Healthcare (Piscataway, N.J.) to a specific activity of 42 Ci/mmole. Copper chelate (His-Tag) YSi SPA Scintillation Beads (GE Healthcare, Piscataway, N.J.) were diluted in 0.25% BSA/TBS to 1.5 mg/mL and recombinant, His6-tagged protein added at the indicated concentrations: wild-type (1 μM), ΔC2 SHIP enzyme (1 pM) or C2 domain (10 nM). Protein was allowed to bind 1 h at 23° C., and 250 μg of beads were aliquoted per well of a 96-well plate. 5 μCi of [^3H]-Compound 100 was added per well, the plate gently agitated for 30 min and the amount of bead associated radioactivity quantified by counting in a Wallac BetaPlate plate scintillation counter.\n(§2) Isolated recombinant, His6-tagged C2 domain was expressed and its PI-3,4-P2 binding ability was determined using protein lipid overlay assays. Purified C2 domain was incubated with membrane strips spotted with PI-3,4-P2 and bound protein detected using an anti-His6 antibody. As shown in FIG. 11C the C2 domain bound PI-3,4-P2 and this binding was inhibited by Compound 100, consistent with both Compound 100 and PI-3,4-P2 interacting with the C2 domain at a common binding site."}, "SHIP C2 domain [2]": {"test_system": "SHIP C2 domain", "experiment": "Scintillation proximity assay, C2 domain", "type": "binding", "details": "[3H]-Compound 100, SPA beads", "procedure": "as §1, §2"}},
  "data": [
    {"compound": "Cc1cc(O)cc2c1[C@]1(C)CCC3C(C)(C)CCC[C@]3(C)[C@H]1C2", "note": "(stereo partly drawn) [Compound 100]", "values": [
      {"measurement": "Assay Number 4: Stimulation of mast cells by FcεRI crosslinking", "setting": "Mast cells", "result": "+"},
      {"measurement": "binding of C2 domain to PI-3,4-P2", "setting": "SHIP C2 domain [1]", "result": "inhibited"},
      {"measurement": "Assay Number 3: Macrophage NO", "setting": "J774.1a macrophage cells", "result": "+"},
      {"measurement": "ΔC2 SHIP enzyme activity", "setting": "ΔC2 SHIP", "result": "could not be enhanced"},
      {"measurement": "binding to wild-type SHIP vs SHIP lacking C2 domain", "setting": "wild-type SHIP", "result": "bound to wild-type SHIP but not to SHIP lacking its C2 domain"},
      {"measurement": "binding to C2 domain", "setting": "SHIP C2 domain [2]", "result": "directly bind the C2 domain"}
    ]}
  ]
}
